The numbers were not newly measured in patent publication US20050239743A1, “Compositions and methods to inhibit restenosis” (Pro-Pharmaceuticals, Inc., priority 2004, published 2005), which cites them from elsewhere.

For this data set the following is noted: long-term use 10,000 units/day, s.c., following coronary angioplasty.

In the case of heparin, the abnormal hemorrhage supervening is given as 41%. In addition, the “coronary restenosis, share of the cases” value (control restenosis value 33%) is recorded as 82%.
